Reference: PMC4685510, “A Cell Biologist’s Field Guide to Aurora Kinase Inhibitors” (Frontiers in Oncology, 2015)
Where two headings read alike, the source gives them in different places.

Tests used:
Assay in all cases: biochemical
Format in all cases: biochemical
[1] = target: 363 human kinases (including Aurora A/B/C) (Homo sapiens, UniProt P07949); settings: RET; for remaining activity at 0.1 µM: 100 nM; for remaining activity at 0.1 µM / remaining activity at 0.5 µM: read-out: % Enzyme Activity (relative to DMSO controls)
Description: (§1) However, the Aurora A/B selectivity ratios derived from our in vitro and in vivo data can be compared to prioritize inhibitors.

[2] = target: 363 human kinases (including Aurora A/B/C) (Homo sapiens, UniProt P22694); settings: PKAcb; for remaining activity at 0.1 µM: 100 nM; for remaining activity at 0.1 µM / remaining activity at 0.5 µM: read-out: % Enzyme Activity (relative to DMSO controls)
Description: as §1

[3] = target: 363 human kinases (including Aurora A/B/C) (Homo sapiens, UniProt P31751); settings: AKT2, [ATP] 100 µM; for remaining activity at 0.1 µM: 100 nM; for remaining activity at 0.1 µM / remaining activity at 0.5 µM: read-out: % Enzyme Activity (relative to DMSO controls)
Description: as §1

[4] = target: 363 human kinases (including Aurora A/B/C) (Homo sapiens, UniProt Q00535); settings: for remaining activity at 0.1 µM: 100 nM; for remaining activity at 0.1 µM / remaining activity at 0.5 µM: read-out: % Enzyme Activity (relative to DMSO controls); for remaining activity at 0.5 µM / % Enzyme Activity (relative to DMSO controls): 500 nM
Description: as §1

[5] = target: 363 human kinases (including Aurora A/B/C) (Homo sapiens, UniProt Q14289); settings: PYK2; for remaining activity at 0.1 µM: 100 nM; for remaining activity at 0.1 µM / remaining activity at 0.5 µM: read-out: % Enzyme Activity (relative to DMSO controls)
Description: as §1

[6] = target: 363 human kinases (including Aurora A/B/C) (Homo sapiens, UniProt Q16512); settings: PKN1/PRK1; for remaining activity at 0.1 µM: 100 nM; for remaining activity at 0.1 µM / remaining activity at 0.5 µM: read-out: % Enzyme Activity (relative to DMSO controls)
Description: as §1

[7] = target: T1, 363 human kinases (including Aurora A/B/C) (Homo sapiens, UniProt Q16832); settings: DDR2, [ATP] 5 µM; for remaining activity at 0.1 µM: 100 nM; for remaining activity at 0.1 µM / remaining activity at 0.5 µM: read-out: % Enzyme Activity (relative to DMSO controls)
T1 sequence (Q16832 22-855): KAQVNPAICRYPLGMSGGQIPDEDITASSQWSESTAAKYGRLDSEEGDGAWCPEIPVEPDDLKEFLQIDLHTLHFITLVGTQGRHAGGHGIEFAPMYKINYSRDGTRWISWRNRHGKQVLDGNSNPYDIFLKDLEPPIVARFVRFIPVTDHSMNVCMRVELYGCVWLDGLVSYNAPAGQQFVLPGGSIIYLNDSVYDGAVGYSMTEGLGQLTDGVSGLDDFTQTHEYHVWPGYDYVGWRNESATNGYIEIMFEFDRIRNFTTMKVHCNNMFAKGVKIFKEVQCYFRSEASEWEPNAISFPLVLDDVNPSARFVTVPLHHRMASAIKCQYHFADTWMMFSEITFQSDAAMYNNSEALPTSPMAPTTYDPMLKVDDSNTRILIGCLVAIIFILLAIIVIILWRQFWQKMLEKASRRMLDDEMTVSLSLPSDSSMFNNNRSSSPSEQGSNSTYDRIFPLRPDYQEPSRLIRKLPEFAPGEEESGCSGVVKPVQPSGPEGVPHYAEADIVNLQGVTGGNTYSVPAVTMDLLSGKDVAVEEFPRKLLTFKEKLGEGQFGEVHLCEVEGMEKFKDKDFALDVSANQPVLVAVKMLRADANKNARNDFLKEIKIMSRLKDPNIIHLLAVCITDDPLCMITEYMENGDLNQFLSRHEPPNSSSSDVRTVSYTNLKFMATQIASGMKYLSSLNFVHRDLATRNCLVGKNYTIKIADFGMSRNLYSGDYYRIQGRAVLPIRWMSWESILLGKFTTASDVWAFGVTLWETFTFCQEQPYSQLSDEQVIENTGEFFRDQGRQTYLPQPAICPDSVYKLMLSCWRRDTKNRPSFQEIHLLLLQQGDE
Description: as §1

[8] = target: 363 human kinases (including Aurora A/B/C) (Homo sapiens, UniProt Q5S007); settings: LRRK2; for remaining activity at 0.1 µM: 100 nM; for remaining activity at 0.1 µM / remaining activity at 0.5 µM: read-out: % Enzyme Activity (relative to DMSO controls)
Description: as §1

[9] = target: 363 human kinases (including Aurora A/B/C) (Homo sapiens, UniProt Q6DT37); settings: DMPK2, [ATP] 2.5 µM; for remaining activity at 0.1 µM: 100 nM; for remaining activity at 0.1 µM / remaining activity at 0.5 µM: read-out: % Enzyme Activity (relative to DMSO controls)
Description: as §1

[10] = target: 363 human kinases (including Aurora A/B/C) (Homo sapiens, UniProt Q92918); settings: HPK1/MAP4K1; for remaining activity at 0.1 µM: 100 nM; for remaining activity at 0.1 µM / remaining activity at 0.5 µM: read-out: % Enzyme Activity (relative to DMSO controls)
Description: as §1

[11] = target: T2, 363 human kinases (including Aurora A/B/C) (Homo sapiens, UniProt Q96KB5); settings: PBK/TOPK; for remaining activity at 0.1 µM: 100 nM; for remaining activity at 0.1 µM / remaining activity at 0.5 µM: read-out: % Enzyme Activity (relative to DMSO controls)
T2 sequence (Q96KB5 1-322): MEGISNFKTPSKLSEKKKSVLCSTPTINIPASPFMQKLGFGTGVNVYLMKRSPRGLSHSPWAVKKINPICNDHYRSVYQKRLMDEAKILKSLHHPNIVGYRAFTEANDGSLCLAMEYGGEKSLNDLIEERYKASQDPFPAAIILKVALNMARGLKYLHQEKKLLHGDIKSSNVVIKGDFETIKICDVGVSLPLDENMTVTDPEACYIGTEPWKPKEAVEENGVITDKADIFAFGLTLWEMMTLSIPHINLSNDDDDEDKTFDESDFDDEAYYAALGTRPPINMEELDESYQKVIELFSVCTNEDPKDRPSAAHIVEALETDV
Description: as §1

[12] = target: 363 human kinases (including Aurora A/B/C) (Homo sapiens, UniProt Q9BYT3); settings: STK33; for remaining activity at 0.1 µM: 100 nM; for remaining activity at 0.1 µM / remaining activity at 0.5 µM: read-out: % Enzyme Activity (relative to DMSO controls)
Description: as §1

[13] = target: 363 human kinases (including Aurora A/B/C) (Homo sapiens, UniProt Q9UBS0); settings: p70S6Kb/RPS6KB2; for remaining activity at 0.1 µM: 100 nM; for remaining activity at 0.1 µM / remaining activity at 0.5 µM: read-out: % Enzyme Activity (relative to DMSO controls)
Description: as §1

[14] = target: 363 human kinases (including Aurora A/B/C) (Homo sapiens, UniProt Q9UIK4); settings: DAPK2, [ATP] 5 µM; for remaining activity at 0.1 µM: 100 nM; for remaining activity at 0.1 µM / remaining activity at 0.5 µM: read-out: % Enzyme Activity (relative to DMSO controls)
Description: as §1

[15] = target: 363 human kinases (including Aurora A/B/C) (Homo sapiens, UniProt Q9UM73); settings: ALK, [ATP] 50 µM; for remaining activity at 0.1 µM: 100 nM; for remaining activity at 0.1 µM / remaining activity at 0.5 µM: read-out: % Enzyme Activity (relative to DMSO controls)
Description: as §1

Chain of 363 human kinases (including Aurora A/B/C) (Homo sapiens, UniProt Q6DT37) (Q6DT37 whole entry): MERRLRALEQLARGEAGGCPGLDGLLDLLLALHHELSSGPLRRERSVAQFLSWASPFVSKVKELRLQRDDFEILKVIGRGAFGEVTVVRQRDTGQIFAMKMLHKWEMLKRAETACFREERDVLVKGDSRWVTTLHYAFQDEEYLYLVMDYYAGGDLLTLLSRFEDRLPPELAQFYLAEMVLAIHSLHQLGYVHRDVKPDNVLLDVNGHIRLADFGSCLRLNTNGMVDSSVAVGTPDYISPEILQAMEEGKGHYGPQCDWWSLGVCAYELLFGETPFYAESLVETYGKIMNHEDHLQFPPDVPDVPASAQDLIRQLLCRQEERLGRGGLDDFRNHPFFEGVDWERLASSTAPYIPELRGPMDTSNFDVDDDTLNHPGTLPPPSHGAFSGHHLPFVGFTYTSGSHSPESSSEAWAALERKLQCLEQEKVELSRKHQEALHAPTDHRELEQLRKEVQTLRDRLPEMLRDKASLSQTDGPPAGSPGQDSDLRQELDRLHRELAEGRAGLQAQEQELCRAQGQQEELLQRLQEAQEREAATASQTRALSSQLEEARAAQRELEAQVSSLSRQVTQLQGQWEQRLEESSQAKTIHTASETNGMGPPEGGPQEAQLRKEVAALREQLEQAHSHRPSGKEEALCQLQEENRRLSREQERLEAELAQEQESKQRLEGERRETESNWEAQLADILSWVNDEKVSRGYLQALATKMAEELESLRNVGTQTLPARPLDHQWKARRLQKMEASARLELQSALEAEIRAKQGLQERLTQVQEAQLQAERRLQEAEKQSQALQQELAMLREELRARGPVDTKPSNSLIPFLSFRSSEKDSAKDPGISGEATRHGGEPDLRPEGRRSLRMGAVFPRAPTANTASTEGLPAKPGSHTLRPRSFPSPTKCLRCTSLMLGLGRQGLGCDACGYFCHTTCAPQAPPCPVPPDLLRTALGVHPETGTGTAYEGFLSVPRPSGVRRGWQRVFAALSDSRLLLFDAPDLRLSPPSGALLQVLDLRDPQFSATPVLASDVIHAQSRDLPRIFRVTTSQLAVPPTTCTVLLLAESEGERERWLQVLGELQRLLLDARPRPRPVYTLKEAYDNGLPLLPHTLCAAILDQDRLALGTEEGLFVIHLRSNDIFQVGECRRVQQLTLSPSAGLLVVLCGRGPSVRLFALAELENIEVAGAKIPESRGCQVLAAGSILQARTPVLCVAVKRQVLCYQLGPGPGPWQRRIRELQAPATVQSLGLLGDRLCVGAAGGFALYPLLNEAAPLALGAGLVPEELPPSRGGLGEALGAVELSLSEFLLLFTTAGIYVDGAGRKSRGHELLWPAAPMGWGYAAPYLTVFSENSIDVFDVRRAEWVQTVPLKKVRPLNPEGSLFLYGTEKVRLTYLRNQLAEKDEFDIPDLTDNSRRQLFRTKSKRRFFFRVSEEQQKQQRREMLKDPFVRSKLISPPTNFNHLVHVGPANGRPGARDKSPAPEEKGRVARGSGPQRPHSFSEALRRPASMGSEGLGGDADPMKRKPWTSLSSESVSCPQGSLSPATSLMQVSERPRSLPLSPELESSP
Chain of 363 human kinases (including Aurora A/B/C) (Homo sapiens, UniProt Q9UBS0) (Q9UBS0 whole entry): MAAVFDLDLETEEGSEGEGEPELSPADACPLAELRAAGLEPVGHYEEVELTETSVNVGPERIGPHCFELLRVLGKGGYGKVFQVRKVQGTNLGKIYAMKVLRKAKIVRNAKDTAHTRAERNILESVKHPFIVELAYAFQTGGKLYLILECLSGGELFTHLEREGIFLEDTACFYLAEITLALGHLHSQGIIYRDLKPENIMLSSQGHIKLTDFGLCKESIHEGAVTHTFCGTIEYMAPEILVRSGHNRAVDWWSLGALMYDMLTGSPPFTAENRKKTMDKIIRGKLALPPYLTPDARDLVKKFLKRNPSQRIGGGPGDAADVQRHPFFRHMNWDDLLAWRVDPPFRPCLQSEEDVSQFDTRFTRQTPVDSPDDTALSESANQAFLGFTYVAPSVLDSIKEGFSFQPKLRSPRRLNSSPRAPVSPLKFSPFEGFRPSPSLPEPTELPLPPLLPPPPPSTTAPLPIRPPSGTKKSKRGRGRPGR
Chain of 363 human kinases (including Aurora A/B/C) (Homo sapiens, UniProt Q9UIK4) (Q9UIK4 whole entry): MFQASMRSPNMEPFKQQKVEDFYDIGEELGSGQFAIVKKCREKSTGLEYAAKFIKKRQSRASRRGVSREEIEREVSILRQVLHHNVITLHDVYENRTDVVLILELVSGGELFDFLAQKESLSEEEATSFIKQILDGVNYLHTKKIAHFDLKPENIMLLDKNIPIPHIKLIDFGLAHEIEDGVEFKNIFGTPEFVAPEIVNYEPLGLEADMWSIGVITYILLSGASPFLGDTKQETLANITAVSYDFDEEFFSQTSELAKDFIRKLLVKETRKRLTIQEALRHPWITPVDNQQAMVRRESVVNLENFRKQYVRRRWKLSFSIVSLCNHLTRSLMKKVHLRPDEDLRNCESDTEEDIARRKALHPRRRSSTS
Chain of 363 human kinases (including Aurora A/B/C) (Homo sapiens, UniProt P07949) (P07949 29-1114): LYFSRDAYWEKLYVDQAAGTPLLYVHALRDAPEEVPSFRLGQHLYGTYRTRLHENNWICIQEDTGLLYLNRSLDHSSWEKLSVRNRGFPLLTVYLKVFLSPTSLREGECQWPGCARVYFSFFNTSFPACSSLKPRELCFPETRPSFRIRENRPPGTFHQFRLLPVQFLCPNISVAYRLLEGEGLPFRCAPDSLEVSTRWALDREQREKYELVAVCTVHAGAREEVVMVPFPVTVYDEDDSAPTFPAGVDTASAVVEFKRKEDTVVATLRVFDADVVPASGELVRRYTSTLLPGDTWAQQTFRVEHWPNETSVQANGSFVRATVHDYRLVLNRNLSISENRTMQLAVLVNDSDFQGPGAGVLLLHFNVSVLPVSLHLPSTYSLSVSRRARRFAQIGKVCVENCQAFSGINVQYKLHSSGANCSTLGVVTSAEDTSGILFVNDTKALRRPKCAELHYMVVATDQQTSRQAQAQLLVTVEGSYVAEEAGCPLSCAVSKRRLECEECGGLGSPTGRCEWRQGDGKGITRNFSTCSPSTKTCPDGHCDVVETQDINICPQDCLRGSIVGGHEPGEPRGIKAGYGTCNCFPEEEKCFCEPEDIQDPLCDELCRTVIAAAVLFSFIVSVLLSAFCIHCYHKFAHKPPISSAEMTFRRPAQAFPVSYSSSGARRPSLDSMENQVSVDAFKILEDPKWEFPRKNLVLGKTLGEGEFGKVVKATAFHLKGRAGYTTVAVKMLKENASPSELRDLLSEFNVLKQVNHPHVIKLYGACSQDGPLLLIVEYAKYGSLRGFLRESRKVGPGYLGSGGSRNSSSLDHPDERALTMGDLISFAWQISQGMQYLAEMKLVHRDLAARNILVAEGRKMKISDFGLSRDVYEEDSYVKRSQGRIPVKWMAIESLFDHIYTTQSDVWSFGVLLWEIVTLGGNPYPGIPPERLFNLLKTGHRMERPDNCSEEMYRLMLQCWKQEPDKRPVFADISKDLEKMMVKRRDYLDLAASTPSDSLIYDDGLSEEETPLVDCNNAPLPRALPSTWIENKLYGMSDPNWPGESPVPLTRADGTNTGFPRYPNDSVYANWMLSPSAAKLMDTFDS
Chain of 363 human kinases (including Aurora A/B/C) (Homo sapiens, UniProt Q14289) (Q14289 whole entry): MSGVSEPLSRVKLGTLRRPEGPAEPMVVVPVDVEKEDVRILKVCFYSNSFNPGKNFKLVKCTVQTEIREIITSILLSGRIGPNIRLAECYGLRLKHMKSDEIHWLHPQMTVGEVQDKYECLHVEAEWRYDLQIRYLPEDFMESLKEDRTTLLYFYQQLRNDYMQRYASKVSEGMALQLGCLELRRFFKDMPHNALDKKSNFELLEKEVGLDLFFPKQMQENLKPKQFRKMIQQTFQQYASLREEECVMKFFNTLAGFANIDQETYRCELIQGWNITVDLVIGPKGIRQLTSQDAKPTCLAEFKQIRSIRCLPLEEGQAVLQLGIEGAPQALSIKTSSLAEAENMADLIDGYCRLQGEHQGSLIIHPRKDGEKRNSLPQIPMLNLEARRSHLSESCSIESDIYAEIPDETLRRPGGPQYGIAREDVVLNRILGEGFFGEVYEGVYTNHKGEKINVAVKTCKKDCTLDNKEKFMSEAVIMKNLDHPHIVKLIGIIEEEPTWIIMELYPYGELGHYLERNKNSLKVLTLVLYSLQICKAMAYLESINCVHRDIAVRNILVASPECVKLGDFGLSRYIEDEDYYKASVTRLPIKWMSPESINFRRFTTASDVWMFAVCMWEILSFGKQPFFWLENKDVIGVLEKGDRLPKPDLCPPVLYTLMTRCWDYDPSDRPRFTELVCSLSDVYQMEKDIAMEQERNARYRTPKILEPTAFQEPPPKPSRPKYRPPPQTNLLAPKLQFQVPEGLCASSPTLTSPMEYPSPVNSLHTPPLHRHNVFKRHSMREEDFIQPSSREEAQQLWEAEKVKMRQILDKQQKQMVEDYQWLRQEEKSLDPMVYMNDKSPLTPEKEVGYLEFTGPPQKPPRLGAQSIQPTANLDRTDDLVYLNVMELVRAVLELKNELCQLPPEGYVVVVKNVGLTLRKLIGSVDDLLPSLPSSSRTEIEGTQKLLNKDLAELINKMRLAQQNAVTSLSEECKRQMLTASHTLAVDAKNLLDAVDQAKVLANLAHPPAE
Chain of 363 human kinases (including Aurora A/B/C) (Homo sapiens, UniProt P31751) (P31751 whole entry): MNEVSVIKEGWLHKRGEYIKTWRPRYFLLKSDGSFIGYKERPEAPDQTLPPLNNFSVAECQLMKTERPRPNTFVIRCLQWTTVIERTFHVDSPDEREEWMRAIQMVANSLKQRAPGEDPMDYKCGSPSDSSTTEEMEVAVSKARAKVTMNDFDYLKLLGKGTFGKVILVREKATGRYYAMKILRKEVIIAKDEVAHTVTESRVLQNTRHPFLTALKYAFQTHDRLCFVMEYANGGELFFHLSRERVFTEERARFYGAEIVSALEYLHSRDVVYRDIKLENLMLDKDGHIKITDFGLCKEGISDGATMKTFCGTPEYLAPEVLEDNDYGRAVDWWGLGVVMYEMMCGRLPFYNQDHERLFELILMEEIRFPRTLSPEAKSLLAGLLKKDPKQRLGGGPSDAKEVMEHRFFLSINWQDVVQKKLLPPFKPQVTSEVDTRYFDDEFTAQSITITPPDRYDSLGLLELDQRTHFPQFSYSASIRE

Structure (SMILES): O=C(O)[C@]1(Cc2cccc(Nc3nccs3)n2)CC[C@@H](Oc2cccc(Cl)c2F)CC1 [MK-5108]
- remaining activity at 0.1 µM [1]: 17.4%
- remaining activity at 0.5 µM ([1]; 500 nM): 3.79%
- remaining activity at 0.1 µM [2]: 97.1%
- remaining activity at 0.5 µM ([2]; 500 nM): 98.5%
- remaining activity at 0.1 µM [3]: 94.5%
- remaining activity at 0.5 µM ([3]; 500 nM): 107%
- remaining activity at 0.1 µM ([4]; CDK5/p25, [ATP] 50 µM): 95.8%
- remaining activity at 0.5 µM ([4]; CDK5/p25, [ATP] 50 µM): 75.3%
- remaining activity at 0.1 µM ([4]; CDK5/p35, [ATP] 100 µM): 95.7%
- remaining activity at 0.5 µM ([4]; CDK5/p35, [ATP] 100 µM): 90%
- remaining activity at 0.1 µM [5]: 41.2%
- remaining activity at 0.5 µM ([5]; 500 nM): 16.4%
- remaining activity at 0.1 µM [6]: 96%
- remaining activity at 0.5 µM ([6]; 500 nM): 115%
- remaining activity at 0.1 µM [7]: 21.8%
- remaining activity at 0.5 µM ([7]; 500 nM): 9.68%
- remaining activity at 0.1 µM [8]: 52.7%
- remaining activity at 0.5 µM ([8]; 500 nM): 14.2%
- remaining activity at 0.1 µM [9]: 98.7%
- remaining activity at 0.5 µM ([9]; 500 nM): 140%
- remaining activity at 0.1 µM [10]: 105%
- remaining activity at 0.5 µM ([10]; 500 nM): 82.1%
- remaining activity at 0.1 µM [11]: 93.9%
- remaining activity at 0.5 µM ([11]; 500 nM): 95.4%
- remaining activity at 0.1 µM [12]: 79.3%
- remaining activity at 0.5 µM ([12]; 500 nM): 70.5%
- remaining activity at 0.1 µM [13]: 100%
- remaining activity at 0.5 µM ([13]; 500 nM): 99%
- remaining activity at 0.1 µM [14]: 103%
- remaining activity at 0.5 µM ([14]; 500 nM): 111%
- remaining activity at 0.1 µM [15]: 67%
- remaining activity at 0.5 µM ([15]; 500 nM): 30.9%

Structure (SMILES): O=C(c1cccc(Cl)c1F)N1CCN(Cc2cccc(Nc3nccs3)n2)CC1 [MK-8745]
- % Enzyme Activity (relative to DMSO controls) ([1]; 500 nM): 84.03%
- remaining activity at 0.5 µM ([1]; 500 nM): 84.5%
- % Enzyme Activity (relative to DMSO controls) ([2]; 500 nM): 99.52%
- remaining activity at 0.5 µM ([2]; 500 nM): 99.5%
- % Enzyme Activity (relative to DMSO controls) ([3]; 500 nM): 96.21%
- remaining activity at 0.5 µM ([3]; 500 nM): 96.8%
- % Enzyme Activity (relative to DMSO controls) ([4]; CDK5/p25, [ATP] 50 µM): 87.84%
- remaining activity at 0.5 µM ([4]; CDK5/p25, [ATP] 50 µM): 88.5%
- % Enzyme Activity (relative to DMSO controls) ([4]; CDK5/p35, [ATP] 100 µM): 93.11%
- remaining activity at 0.5 µM ([4]; CDK5/p35, [ATP] 100 µM): 94.6%
- % Enzyme Activity (relative to DMSO controls) ([5]; 500 nM): 80.17%
- remaining activity at 0.5 µM ([5]; 500 nM): 83.5%
- % Enzyme Activity (relative to DMSO controls) ([6]; 500 nM): 94.45%
- remaining activity at 0.5 µM ([6]; 500 nM): 96.7%
- % Enzyme Activity (relative to DMSO controls) ([7]; 500 nM): 71.49%
- remaining activity at 0.5 µM ([7]; 500 nM): 73.2%
- % Enzyme Activity (relative to DMSO controls) ([8]; 500 nM): 88.73%
- remaining activity at 0.5 µM ([8]; 500 nM): 92.8%
- % Enzyme Activity (relative to DMSO controls) ([9]; 500 nM): 124.49%
- remaining activity at 0.5 µM ([9]; 500 nM): 126%
- % Enzyme Activity (relative to DMSO controls) ([10]; 500 nM): 81.94%
- remaining activity at 0.5 µM ([10]; 500 nM): 87.3%
- % Enzyme Activity (relative to DMSO controls) ([11]; 500 nM): 91.24%
- remaining activity at 0.5 µM ([11]; 500 nM): 94.4%
- % Enzyme Activity (relative to DMSO controls) ([12]; 500 nM): 107.39%
- remaining activity at 0.5 µM ([12]; 500 nM): 110%
- % Enzyme Activity (relative to DMSO controls) ([13]; 500 nM): 97.78%
- remaining activity at 0.5 µM ([13]; 500 nM): 99.3%
- % Enzyme Activity (relative to DMSO controls) ([14]; 500 nM): 102.56%
- remaining activity at 0.5 µM ([14]; 500 nM): 105%
- % Enzyme Activity (relative to DMSO controls) ([15]; 500 nM): 78.97%
- remaining activity at 0.5 µM ([15]; 500 nM): 81%

Structure (SMILES): CCn1cc(-c2ccnc3[nH]c(-c4cccc(CN(C)C)c4)cc23)c(-c2ccc(NC(=O)N(C)C)cc2)n1 [GSK1070916]
- remaining activity at 0.1 µM [1]: 97.8%
- remaining activity at 0.1 µM [2]: 98%
- remaining activity at 0.1 µM [3]: 95.8%
- remaining activity at 0.1 µM ([4]; CDK5/p25, [ATP] 50 µM): 91.8%
- remaining activity at 0.1 µM ([4]; CDK5/p35, [ATP] 100 µM): 111%
- remaining activity at 0.1 µM [5]: 95.3%
- remaining activity at 0.1 µM [6]: 103%
- remaining activity at 0.1 µM [7]: 76.1%
- remaining activity at 0.1 µM [8]: 92.1%
- remaining activity at 0.1 µM [9]: 89.4%
- remaining activity at 0.1 µM [10]: 109%
- remaining activity at 0.1 µM [11]: 97.5%
- remaining activity at 0.1 µM [12]: 111%
- remaining activity at 0.1 µM [13]: 110%
- remaining activity at 0.1 µM [14]: 111%
- remaining activity at 0.1 µM [15]: 98.4%
